In PubChem BioAssay (NCI):
Where “and” joins values, the source holds several entries; their conditions need not be identical. Equal entries are not always repeated.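 Where inhibition never reached the appropriate level, the endpoint shown equals the highest concentration tested. Otherwise, values were interpolated linearly from a five-concentration, 48-hour dose response in 96-well plates. GI50 = concentration required for 50% inhibition of growth. TGI marks complete inhibition of growth.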

What was measured:
Assay in all cases: DTP human tumour cell line panel, 48 h
[1] = system: SF-268 CNS
[2] = system: MALME-3M melanoma
[3] = system: SF-539 CNS
[4] = system: TK-10 renal
[5] = system: DU-145 prostate
[6] = system: KM12 colon
[7] = system: UACC-62 melanoma
[8] = system: OVCAR-5 ovarian
[9] = system: SK-MEL-5 melanoma
[10] = system: OVCAR-8 ovarian

Row | Structure (SMILES) | GI50 [1] [µM] | GI50 [2] [µM] | TGI [2] | GI50 [3] | TGI [3] | GI50 [4] [µM] | TGI [4] [µM] | GI50 [5] [µM] | TGI [5] [µM] | GI50 [6] [µM] | TGI [6] | GI50 [7] [µM] | TGI [7] | GI50 [8] [µM] | TGI [8] | GI50 [9] [µM] | TGI [9] [µM] | TGI [1] | TGI [10] | GI50 [10] [µM]
1 | COc1ccc2c(c1)C(=O)c1c-2n(CCCN)c(=O)c2cc(OC)c(OC)cc12 | 0.515 | 1.14 | 3 µM | 0.164 µM | 1.29 µM | 1.45 | 2.99 | < 0.01 | 0.153 | 0.169 | 0.627 µM | 0.299 | 1.93 µM | 1.59 | 3.01 µM | 0.283 | 1.93 | – | – | –
2 | COc1ccc(/C=c2/sc3n(c2=O)NC(c2ccc(Cl)cc2)NN=3)cc1 (stereo not given) | – | – | > 100 µM | – | > 100 µM | – | > 100 | – | – | – | > 100 µM | – | > 100 µM | – | > 100 µM | – | > 100 | > 100 µM | > 100 µM | –
3 | C/C(CCn1[nH]c(=O)ccc1=O)=N\Nc1ccc([N+](=O)[O-])cc1[N+](=O)[O-] | – | – | > 100 µM | – | > 100 µM | – | > 100 | – | – | – | > 100 µM | – | > 100 µM | – | > 100 µM | – | > 100 | > 100 µM | > 100 µM | –
4 | COc1ccc(CNc2cnc3cc(N)cc(N)c3n2)cc1 | 28.9 | – | – | 21.7 µM | 39.4 µM | 27 | 64.2 | 19.4 | 49.2 | 23.5 | 67.6 µM | 18.1 | 32.4 µM | 18.1 | 43.6 µM | 18.9 | 35.2 | 81.8 µM | 39.8 µM | 19.7
5 | C#CCN(N=O)C(=O)NCCCC(NC(C)=O)C(=O)NCc1ccccc1 (stereo not given) | – | – | > 100 µM | – | > 100 µM | – | > 100 | – | – | – | > 100 µM | – | > 100 µM | – | > 100 µM | – | > 100 | > 100 µM | > 100 µM | –
6 | O=C(Nc1nc(-c2ccc(Cl)cc2)nc2c1sc(=S)n2-c1ccccc1)C(F)(F)F | 4.45 | 2.89 | 7.08 µM | 1.98 µM | 3.88 µM | – | – | 4.32 | 25.3 | 4.89 | > 100 µM | 3.55 | 15 µM | 6.23 | 26.6 µM | 8.23 | 32.3 | 24.3 µM | 21.1 µM | 4.21
7 | CC(=O)C1CCC2C3CC=C4CC(SC(=N)N)CCC4(C)C3CCC12C (stereo not given) | 3.11 | – | – | 1.87 µM | 3.96 µM | 1.69 | 3.17 | 3.13 | 10.3 | – | – | – | – | 2.43 | 8.87 µM | 1.65 | 3.01 | 16.1 µM | – | –
8 | COc1ccc(/C=C\c2cc(OC)c(OC)c(OC)c2)c(O)c1O | 0.249 | – | 27.1 µM and 129 µM | < 0.0264 µM and 0.05 µM | 0.0821 µM and 0.2 µM | – | 55.8 | – | – | 0.0568 | 7.42 µM and 25.4 µM | 0.238 | 17 µM and 6.88 µM | 43.7 | 51.8 µM and 96.4 µM | < 0.015 | – | 37.8 µM and 32 µM | 7.13 µM and 9.64 µM | 0.0517
9 | C=C1NC(=O)C(CC(C(=O)C(=O)Nc2c(C)cccc2C(C)(C)C)C(=O)c2ccc3ccccc3c2)C(=O)N1 (stereo not given) | – | – | – | – | > 100 µM | – | – | – | > 100 | – | > 100 µM | – | > 100 µM | – | > 100 µM | – | > 100 | > 100 µM | > 100 µM | –
